Laboratory results published in US20220409570A1, “COMPOSITION OF N-PALMITOYL-ETHANOLAMIDE AND BAICALEIN IN CO-MICRONIZED FORM” (EPITECH GROUP S.P.A., priority 2021, published 2022).

Columns and labels:
Type in all cases: in vivo, Male Sprangue Dawley rats
PSA = test: Western blot of PSA in prostate tissue of BPH rats; conditions: per os daily for 14 days, co-micronized PEA-Baicalein 10 mg/kg, um-PEA 9 mg/kg, Baicalein 1 mg/kg, vs BPH+vehicle, FIG. 2D
Source text: (§1) Male Sprangue Dawley rats (200-250 gr, Envigo, Italy) fed ad libitum and housed in cages with controlled sleep/wake cycle were used for the in vivo experimentation. Before the start of the experimentation, the animals were subjected to an acclimatization period of one week considering all the experimental procedures and protocols, compliant with the principles of care and welfare of laboratory animals approved by the Italian Ministry of Health and European directives (Italian Legislative Decree 2014/26 and EU Directive 2010/63) and by the OPBA of the University of Messina. […]
(§2) The animals were euthanized 14 days after the start of the experimentation. […] Specifically, the DHT levels were analyzed in the plasma samples with the commercially available Enzyme-linked Immunosorbent Assay (ELISA) (My BioSource). The samples were dosed with the microplate reader and the absorbance was read spectrophotometrically at 450 nm. […] The protein expression was quantified by densitometry (BIORAD ChemiDoc™ XRS+software) and normalized to the housekeeping gene β-actin.

5α-red 2 = test: Western blot of 5α-red 2 in prostate tissue of BPH rats; conditions: per os daily for 14 days, co-micronized PEA-Baicalein 10 mg/kg, um-PEA 9 mg/kg, Baicalein 1 mg/kg, normalized to β-actin, FIG. 2B
Source text: as §1, §2

Bcl-2 = test: Western blot of anti-apoptotic factor Bcl-2 in prostate tissue of BPH rats; conditions: per os daily for 14 days, co-micronized PEA-Baicalein 10 mg/kg, um-PEA 9 mg/kg, Baicalein 1 mg/kg, vs BPH+vehicle, FIG. 3B
Source text: as §1, §2

DHT = test: Serum DHT levels (ELISA) in rats with testosterone propionate-induced BPH; conditions: per os daily for 14 days, co-micronized PEA-Baicalein 10 mg/kg (9:1), um-PEA 9 mg/kg, Baicalein 1 mg/kg, vs BPH+vehicle, FIG. 2A
Source text: as §1, §2

Bax = test: Western blot of pro-apoptotic factor Bax in prostate tissue of BPH rats; conditions: per os daily for 14 days, co-micronized PEA-Baicalein 10 mg/kg, um-PEA 9 mg/kg, Baicalein 1 mg/kg, vs BPH+vehicle, FIG. 3C
Source text: as §1, §2

AR = test: Western blot of AR in prostate tissue of BPH rats; conditions: per os daily for 14 days, co-micronized PEA-Baicalein 10 mg/kg, um-PEA 9 mg/kg, Baicalein 1 mg/kg, vs BPH+vehicle, FIG. 2C
Source text: as §1, §2

[1] = system: testosterone propionate-induced BPH (Benign Prostatic Hyperplasia); test: Weight of the prostate in BPH rats; conditions: per os daily for 14 days, co-micronized PEA-Baicalein 10 mg/kg, um-PEA 9 mg/kg, FIG. 3A
Source text: as §1, §2

SMILES	Expression (tissue levels) of PSA (WB densitometry) (PSA)	Expression of the 5α-red 2 protein in prostate tissue (WB densitometry) (5α-red 2)	Levels of the anti-apoptotic factor Bcl-2 (WB densitometry) (Bcl-2)	Serum levels of DHT (DHT)	Expression of the pro-apoptotic factor Bax (WB densitometry) (Bax)	Expression (tissue levels) of AR (WB densitometry) (AR)	Weight of the prostate [1]
O=c1cc(-c2ccccc2)oc2cc(O)c(O)c(O)c12 [Baicalein, 5,6,7-trihydroxyflavone]	did not bring significant changes	not capable of reducing the expression of such an enzyme	did not show a statistically significant change	markedly elevated	did not show a statistically significant change	did not bring significant changes	–
CCCCCCCCCCCCCCCC(=O)NCCO [um-PEA, Palmitoylethanolamide]	significantly greater and clearer effect, with respect to um-PEA alone	more than the um-PEA alone at 9 mg/kg, significantly reduces the expression of the enzyme 5α-red 2	decidedly minor effect and with lower statistical significance	more than the um-PEA (9 mg/kg), significantly reduces serum DHT	decidedly minor effect and with lower statistical significance	–	progressive decrease in prostate weight
